Experimental data reported in US20150274658A1, “THERAPEUTIC LACTAMS” (Allergan, Inc., priority 2014, published 2015).

Key:
[1] = biological target: T1, EP2 (Homo sapiens, UniProt P43116); assay: EP2 cAMP functional assay; type: cell-based
Text: (§1) U.S. patent application Ser. No. 11/553,143, filed on Oct. 26, 2006, incorporated by reference herein, describes the methods used to obtain the in vitro data in the table below.

[2] = biological target: T1, EP2; assay: EP2 binding (Ki)
Text: as §1

T1 sequence (P43116 whole entry): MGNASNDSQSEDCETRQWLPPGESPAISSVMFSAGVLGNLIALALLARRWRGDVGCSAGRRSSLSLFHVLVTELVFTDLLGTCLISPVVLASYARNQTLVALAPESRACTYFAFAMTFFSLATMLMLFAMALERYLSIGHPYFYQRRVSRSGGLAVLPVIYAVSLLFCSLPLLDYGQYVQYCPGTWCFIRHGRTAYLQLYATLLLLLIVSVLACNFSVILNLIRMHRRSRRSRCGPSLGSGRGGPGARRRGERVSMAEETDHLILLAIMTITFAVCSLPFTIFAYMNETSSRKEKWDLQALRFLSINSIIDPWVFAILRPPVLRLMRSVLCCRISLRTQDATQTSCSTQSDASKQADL

Row | EC50 [1] | Ki [2] | SMILES
1 | 233 nM | – | CCCCCC(O)c1ccc(N2C(=O)C(C)C[C@@H]2COCc2ccc(C(=O)O)s2)cc1 (single isomer, unassigned) [Example 1]
2 | – | > 10000 nM | CCCCCC(O)c1ccc(N2C(=O)C(C)C[C@@H]2COCc2ccc(C(=O)O)s2)cc1 (single isomer, unassigned) [Example 2]
